Earlier results as cited in US4559324A, “Polypeptide-diesters, their production and use” (Takeda Chemical Industries, Ltd., priority 1982, dated 1985).

Tested on: Substance P
Details: S. Rosell and K. Folkers, TIPS, 211 (1982)

| Substance | antagonist activity against Substance P |
| --- | --- |
| (D-Pro^2, D-Phe^7, D-Trp^9)-Substance P | sufficiently active |
| (D-Pro^2, D-Trp^7, D-Trp^9)-Substance P | sufficiently active |
